This is an account of results in patent publication USRE44971E1, “Method for selection of transformed cells” (priority 2006, dated 2014).

Assay [1] deals with soybean explants inoculated with Agrobacterium harboring pMON73691 (DMO and GFP genes). The assay is described as follows: Selection of pMON73691-inoculated soybean explants with 2,4-D or dicamba in liquid medium, GFP+ buds. Particulars: selective agent 0.01 mg/L; 375 explants inoculated; pMON73691. Type of assay: cell-based. As to the method:
Freshly isolated soybean explants (mature embryo axes without cotyledons) were inoculated with Agrobacterium strain ABI harboring pMON73691 (containing DMO and GFP genes). After 3-d co-culture with Agrobacterium at 23° C. and a photoperiod of 16-h light and 8-h dark, the explants were cultured in liquid delay medium which contained modified woody plant medium supplemented with 5 mg/l BAP, 200 mg/l carbenicillin, 200 mg/l cefotaxime and 100 mg/l ticarcillin. The explants were in the delay medium for 4 days. They were then transferred to liquid selection medium in PLANTCONs. The selection medium was the same as the delay medium except of addition of various levels of 2,4-D (0.01, 0.1, 1.0 or 2.0 mg/L) or 0.01 mg/L dicamba as shown in Table 9 below. Each PLANTCON contained 60 ml of the selection medium and one piece of foam sponge with 5 slits. Twenty-five explants were evenly inserted into the slits. The cultures were maintained at 28° C. and a photoperiod of 16-h light and 8-h dark, and were examined periodically under a […] equipped for detecting GFP expressing tissues.

Assay [2] has as its system soybean cells transformed with pMON73691. As to the method:
Mature seeds of soybean [Glycine max (L.) Merrill] cv. A3525 were imbibed, sterilized, and germinated at room temperature as set forth below. Other examples of soybean genotypes that can readily be used include, but are not limited to, Jack, Williams, Bert, Thorne, Granite, Lambert, Chapman, and Kunitz. Briefly, dry seeds (about 770 g) were soaked for 3 min in 2 L of 200 ppm sodium hypochlorite solution made from commercially available Clorox. The solution was drained and the seeds were set side for about 2 h. About 2 L of bean sterilization/germination medium was then added to the seeds. After about 9-10 h, seeds were ready for hand excision of explants. The bean germination medium contained the following in mg/L—NH4NO3: 240, KNO3: 505, CaCl2.2H2O: 176, MgSO4.7H2O: 493, KH2PO4: 27, H3BO3: 1.86, Na2MoO4.2H2O: 0.216, MnSO4.H2O: 5.07, ZnSO4. 7H2O: 2.58, FeSO4.7H2O: 2.502, KI: 0.249, Na2EDTA. 2H2O: 3.348, CuSO4.5H2O: 0.0008, CoCl2.6H2O: 0.0008, B1: 1.34, B3: 0.5, B6: 0.82, Bravo (75% WP; Diamond Shamrock Company, Cleveland, Ohio): 30, Captan (50% WP; Micro Flo Company, Lakeland, Fla.): 30, Cefotaxime: 125, and Sucrose: 25000, pH 5.8).
The binary vectors described above were mobilized into disarmed Agrobacterium tumefaciens strain C58 (ABI). Agrobacterium inoculum for infection was prepared as follows: 250 ml of LB medium (Luria-Bertani; Difco, Detroit, Mich.) containing 50 mg/l kanamycin (Sigma, St. Louis, Mo.) and 75 mg/l spectinomycin (Sigma, St. Louis, Mo.) was inoculated with 0.5 ml of Agrobacterium stock in glycerol (Acros Organics, Geel, Belgium) and was shaken at 200 rpm at 28° C. for approximately 20-22 h until the OD660 reached 0.8 to 1.0. The Agrobacterium broth was then centrifuged for 25 min at 3500 rpm (about 3565 g) at 2-4° C. After removing the supernatant, the Agrobacterium pellet was re-suspended in inoculation medium containing ⅖× of the macro nutrients, 1/10× of the micro nutrients and vitamins of Gamborg's B5 medium, supplemented with 3.9 g/l MES (Sigma, St. Louis, Mo.), and 30 g/l glucose (PhytoTechnology Laboratories, Shawnee Mission, Kans.), pH 5.4. Lipoic acid (Sigma, St. Louis, Mo.) was added to the Agrobacterium suspension to a final concentration of 0.25 mM after the density of the Agrobacterium cell suspension was adjusted to an OD660 of 0.30 to 0.35.
Agrobacterium-infection and co-cultivation of the explants were conducted as follows: about 100 excised explants were dispensed into the lid of a sterile plastic culture vessel PLANTCON (MP Biomedicals, LLC, Irvine, Calif.). Five ml of Agrobacterium inoculum was added to the explants in each PLANTCON lid. The explants were then sonicated for 20 sec in a sonicator (Ultrasonic Multi Cleaner, Model W-113, Honda, Japan). One piece of Whatmann #1 filter paper (Whatman Inc., Clifton, N.J.) cut to the size of the PLANTCON bottom was placed in the bottom part of the PLANTCON. The explants were transferred from the lid onto the filter paper with the Agrobacterium inoculum. The PLANTCON s were then incubated in a Percival incubator at 16 h light (at about 85-90 μE) and 8 h dark photoperiod and at 23° C. for 2 to 4 d for co-cultivation.
After a co-cultivation period of 2-4 days, explants were first cultured on a medium without dicamba (delay medium) for 3-5 d before being transferred to the selection medium with dicamba. Until transfer from delay medium to selection medium, the explants were kept in the same PLANTCON used for co-cultivation, but 10 or 12 ml of the delay medium was added to each PLANTCON. Alternatively, the explants were transferred to new PLANTCONs, each containing one piece of autoclaved felt (Jo-Ann Fabrics & Crafts, Madison, Wis.)) and 30 ml of the delay medium.

Assay [3] has as its system Wild type Arabidopsis var. Columbia. Particulars: 1.0 mg/L in the culture medium; FIG. 8. On the procedure:
The susceptibility of Arabidopsis to different levels of dicamba was first tested. Wild type Arabidopsis var. Columbia seeds were plated on plant tissue culture medium containing various levels of dicamba. […] Arabidopsis plants were then transformed with the constructs containing DMO polynucleotides using the floral dip method (Clough and Bent, 1998). R1 seeds were plated on the culture medium containing up to 4 mg/L of dicamba.

In the case of `COc1c(Cl)ccc(Cl)c1C(=O)O` [dicamba, 3,6-dichloro-o-anisic acid], the “# Explants w/GFP + buds/young shoots at 48DAI” value in assay [1] worked out at 28. The compound also had a dicamba-tolerant shoots harvested in assay [2] (0.01 mg/l in selection medium, from 800 explants, pMON73691) of 30. Besides, the tolerant shoots harvested entry in assay [2] (0.02 mg/l in selection medium, pMON73691) is given as “few tolerant shoots were harvested”. Further, the tolerant shoots obtained result in assay [2] (0.05 or 0.1 mg/l in selection medium, pMON73691) is “no tolerant shoots were obtained”. Further, the “tolerant shoots that formed roots on rooting medium and were transferred to soil” value in assay [2] (of 30 shoots selected on 0.01 mg/l) was “Twelve”. Also, the “plants positive for DMO-encoding polynucleotides” value in assay [2] (of ten tested, selected on 0.01 mg/l) is “seven”. Moreover, in assay [2] (soybean explants, pMON73691), the “concentration most efficacious for selecting dicamba-tolerant shoots” value was no more than 0.01 mg/L. Further, the “susceptibility of wild type Arabidopsis” value in assay [3] is on record as “quite susceptible”.
